The values that follow are results of earlier work, collected in patent US8932634B2, “Hydrocolloid carrier beads with inert filler material” (Yissum Research Development Company of the Hebrew …, priority 2006, dated 2015).

Counter-ions that a name gives are not always drawn.

As to `COc1ccc([C@@H]2Sc3ccccc3N(CCN(C)C)C(=O)[C@@H]2OC(C)=O)cc1` [Diltiazem hydrochloride], the solubility in water result is reported as “high”.
